Read-outs that look alike come from different tables or passages of the source. Positions of bridges follow the written chain, without caps; N, C: chain ends. Non-standard residues stand in square brackets, D forms with d. Residues, ends and D or L forms follow the SMILES beside them. Dip = N[C@H](C(=O)O)C(c1ccccc1)c1ccccc1; Tic = O=C(O)[C@@H]1Cc2ccccc2CN1; dTic = O=C(O)[C@H]1Cc2ccccc2CN1
Tests used:
HIV-1 NL4-3 DTV = conditions: read-out: IC50 DTV, P4-CCR5 cells, peptide 2 h before infection, readout three days after infection
Outline: (§1)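 P4-CCR5 cells (CD4, CCR5, CXCR4, HIV-1 promoter-driven β-galactosidase) pretreated 2 h with peptide, then infected with virus containing 1 ng p24 antigen and incubated overnight. Cells washed and cultured without peptide; three days post-infection infectivity read by chemiluminescent β-galactosidase assay, in quintuplicate.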

X4-tropic HIV-1 NL4-3 = conditions: read-out: IC50 NL4-3; P4-CCR5 cells, HIV-1 NL4-3, peptide 2 h before infection, readout three days after infection
Outline: as §1

[1] = dog, plasma
Method: (§2) Plasma was spiked resulting in concentrations of 40 μg/ml and stored at 37° C. At time points 0, 15, 30, 45, 60, 120, 180, 240 and 300 min samples of 20 μl were taken. The plasma was immediately mixed for precipitation with the two-fold volume of acetonitrile containing 0.15% (w/v) n-nonyl-β-D-glucopyranoside. Following centrifugation the supernatants were mixed with the two-fold volume of 0.1% (v/v) trifluroacetic acid. Twenty μl of these solutions were analyzed by LC-MS. Chromatography was performed using a gradient with the following eluents: eluent A: water containing 0.06% trifluroacetic acid (v/v), eluent B: acetonitrile/water 80:20 (v/v; with 0.05% trifluoroacetic acid; v/v). A C18 precolumn was used in combination with a C18 separation column (300 Å, 5 μm, 150×1 mm inner diameter) at a flow rate of 30 μl/min. HPLC eluates were ionized by the electrospray technique of a LCQ classic mass spectrometer. Areas of the detected peaks of the peptides of the present invention were measured and used for quantification by external calibration. The calibration curve was linear over a range from 0.5 μg/ml to 250 μg/ml plasma. Half life—defined as the period for a concentration decrease to 50% of the initial concentration—was calculated from the slope of an extrapolated curve plotting the relative peptide concentration at a given time point (logarithm scale) against the incubation time. These experiments allowed the quantitative analysis of peptide concentration in plasma.

[2] = human, plasma
Method: as §2

[3] = rat, plasma
Method: as §2

[4] = cynomolgus monkey, plasma
Method: as §2

| SMILES | IC50 (HIV-1 NL4-3 DTV) [µM] | IC50 (X4-tropic HIV-1 NL4-3) [µM] | half-life [1] [h] | half-life [2] [h] | half-life [3] [h] | half-life [4] [h] |
| --- | --- | --- | --- | --- | --- | --- |
| CC[C@H](C)[C@H](NC(=O)[C@H](C)NC(=O)[C@H](CCC(=O)O)NC(=O)[C@@H](N)CC(C)C)C(=O)N1CCC[C@H]1C(=O)N[C@H]1CSSC[C@@H](C(=O)N[C@@H](Cc2ccccc2)C(=O)N[C@@H](CC(C)C)C(=O)N[C@@H](Cc2ccccc2)C(=O)N[C@@H](CC(N)=O)C(=O)N[C@@H](CCCCN)C(=O)N2CCC[C@H]2C(=O)N[C@@H](Cc2ccccc2)C(=O)N[C@H](C(=O)N[C@@H](Cc2ccccc2)C(=O)O)C(C)C)NC(=O)[C@H]2CCCN2C(=O)[C@@H]2CCCN2C(=O)[C@H]([C@@H](C)CC)NC(=O)[C@H](CO)NC1=O [VIR-353, LEAIPCSIPpCFLFNKPFVF] (H-LEAIPCSIP[dP]CFLFNKPFVF-OH; disulfide 6-11) | 0.181 | 0.225 | 15.2 | 4 | 0.2 | 5 |
| CC[C@H](C)[C@H](NC(=O)[C@H](C)NC(=O)[C@H](CCC(=O)O)NC(=O)[C@@H](N)CC(C)C)C(=O)N1CCC[C@H]1C(=O)N[C@@H](CCSC)C(=O)N[C@@H](CO)C(=O)N[C@H](C(=O)N1CCC[C@H]1C(=O)N1CCC[C@@H]1C(=O)N[C@@H](CCC(=O)O)C(=O)N[C@H](C(=O)N[C@@H](C)C(=O)N[C@@H](Cc1ccccc1)C(=O)N[C@@H](CC(N)=O)C(=O)N[C@@H](CCCCN)C(=O)N1CCC[C@H]1C(=O)N[C@@H](Cc1ccccc1)C(=O)N[C@H](C(=O)N[C@@H](Cc1ccccc1)C(=O)O)C(C)C)C(c1ccccc1)c1ccccc1)[C@@H](C)CC [VIR-261, LEAIPMSIPpE(3,3-diphenylalanine)AFNKPFVF] (H-LEAIPMSIP[dP]E[Dip]AFNKPFVF-OH) | 1.03 | 0.538 | 15.1 | 7 | 0.2 | 6.5 |
| CC[C@H](C)[C@H](NC(=O)[C@H](C)NC(=O)[C@H](CCC(=O)O)NC(=O)[C@@H](N)CC(C)C)C(=O)N1CCC[C@H]1C(=O)N[C@H]1CSSC[C@@H](C(=O)N[C@@H](Cc2ccccc2)C(=O)N[C@@H](CC(C)C)C(=O)N[C@@H](Cc2ccccc2)C(=O)NCC(=O)N[C@@H](CCCCN)C(=O)N2CCC[C@H]2C(=O)N[C@@H](Cc2ccccc2)C(=O)N[C@H](C(=O)N[C@@H](Cc2ccccc2)C(=O)O)C(C)C)NC(=O)[C@@H]2CCCN2C(=O)[C@@H]2CCCN2C(=O)[C@H]([C@@H](C)CC)NC(=O)[C@H](CO)NC1=O [VIR-345] (H-LEAIPCSIPPCFLFGKPFVF-OH; disulfide 6-11) | 0.376 | 0.298 | 10.7 | 5.6 | 0.1 | 5.1 |
| CC[C@H](C)[C@H](NC(=O)[C@H](CCCCN)NC(=O)[C@H](CCC(=O)O)NC(=O)[C@@H](N)CC(C)C)C(=O)N1CCC[C@H]1C(=O)N[C@@H](CCSC)C(=O)N[C@@H](CO)C(=O)N[C@H](C(=O)N1CCC[C@H]1C(=O)N1CCC[C@@H]1C(=O)N[C@@H](CCC(=O)O)C(=O)N[C@H](C(=O)N1Cc2ccccc2C[C@H]1C(=O)N[C@@H](Cc1ccccc1)C(=O)N[C@@H](CC(N)=O)C(=O)N[C@@H](CCCCN)C(=O)N1CCC[C@H]1C(=O)N[C@@H](Cc1ccccc1)C(=O)N[C@H](C(=O)N[C@@H](Cc1ccccc1)C(=O)O)C(C)C)C(C)C)[C@@H](C)CC [VIR-455, LEKIPMSIPpEV(L-Tic)FNKPFVF] (H-LEKIPMSIP[dP]EV[Tic]FNKPFVF-OH) | 0.353 | 0.134 | 8.6 | 5.8 | 0.3 | 6.8 |
| CC[C@H](C)[C@H](NC(=O)[C@H](CCCCN)NC(=O)[C@H](CCC(=O)O)NC(=O)[C@@H](N)CC(C)C)C(=O)N1CCC[C@H]1C(=O)N[C@@H](CCSC)C(=O)N[C@@H](CO)C(=O)N[C@H](C(=O)N1CCC[C@H]1C(=O)N1CCC[C@@H]1C(=O)N[C@@H](CCC(=O)O)C(=O)N[C@H](C(=O)N1Cc2ccccc2C[C@@H]1C(=O)N[C@@H](Cc1ccccc1)C(=O)N[C@@H](CC(N)=O)C(=O)N[C@@H](CCCCN)C(=O)N1CCC[C@H]1C(=O)N[C@@H](Cc1ccccc1)C(=O)N[C@H](C(=O)N[C@@H](Cc1ccccc1)C(=O)O)C(C)C)C(C)C)[C@@H](C)CC [VIR-454, LEKIPMSIPpEV(D-Tic)FNKPFVF] (H-LEKIPMSIP[dP]EV[dTic]FNKPFVF-OH) | 1.09 | 0.464 | 15.6 | 4.4 | 0.2 | 4.4 |
| CC[C@H](C)[C@H](NC(=O)[C@@H]1CCCN1C(=O)[C@@H](NC(=O)[C@H](CCCCN)NC(=O)[C@H](CCC(=O)O)NC(=O)[C@@H](N)CC(C)C)[C@@H](C)CC)C(=O)NCC(=O)N[C@H](C(=O)N1CCC[C@H]1C(=O)N1CCC[C@@H]1C(=O)N[C@@H](CCC(=O)O)C(=O)N[C@H](C(=O)N1Cc2ccccc2C[C@@H]1C(=O)N[C@@H](Cc1ccccc1)C(=O)N[C@@H](CC(N)=O)C(=O)N[C@@H](CCCCN)C(=O)N1CCC[C@H]1C(=O)N[C@@H](Cc1ccccc1)C(=O)N[C@H](C(=O)N[C@@H](Cc1ccccc1)C(=O)O)C(C)C)C(C)C)[C@@H](C)CC [VIR-483, LEKIPIGIPpEV(D-Tic)FNKPFVF] (H-LEKIPIGIP[dP]EV[dTic]FNKPFVF-OH) | 0.866 | 0.765 | 6.2 | 2.6 | 0.2 | 2.2 |
| CC[C@H](C)[C@H](NC(=O)[C@H](C)NC(=O)[C@H](CCC(=O)O)NC(=O)[C@@H](N)CC(C)C)C(=O)N1CCC[C@H]1C(=O)N[C@H]1CSSC[C@@H](C(=O)N[C@H](C(=O)N[C@@H](Cc2ccccc2)C(=O)N[C@@H](Cc2ccccc2)C(=O)NCC(=O)N[C@@H](CCCCN)C(=O)N2CCC[C@H]2C(=O)N[C@@H](Cc2ccccc2)C(=O)N[C@H](C(=O)N[C@@H](Cc2ccccc2)C(=O)O)C(C)C)C(C)C)NC(=O)[C@@H]2CCCN2C(=O)[C@@H]2CCCN2C(=O)[C@H]([C@@H](C)CC)NC(=O)[C@H](CO)NC1=O [VIR-344] (H-LEAIPCSIPPCVFFGKPFVF-OH; disulfide 6-11) | 0.448 | 0.348 | 6.6 | 7 | 0.1 | 10.5 |
| CC[C@H](C)[C@H](NC(=O)[C@H](C)NC(=O)[C@H](CCC(=O)O)NC(=O)[C@@H](N)CC(C)C)C(=O)N1CCC[C@H]1C(=O)N[C@@H](CCSC)C(=O)NCC(=O)N[C@H](C(=O)N1CCC[C@H]1C(=O)N1CCC[C@@H]1C(=O)N[C@@H](CCC(=O)O)C(=O)N[C@H](C(=O)N1Cc2ccccc2C[C@@H]1C(=O)N[C@@H](Cc1ccccc1)C(=O)N[C@@H](CC(N)=O)C(=O)N[C@@H](CCCCN)C(=O)N1CCC[C@H]1C(=O)N[C@@H](Cc1ccccc1)C(=O)N[C@H](C(=O)N[C@@H](Cc1ccccc1)C(=O)O)C(C)C)C(C)C)[C@@H](C)CC [VIR-448, LEAIPMGIPpEV(D-Tic)FNKPFVF] (H-LEAIPMGIP[dP]EV[dTic]FNKPFVF-OH) | 0.325 | 0.318 | 18 | 3.1 | 0.2 | 4.5 |
| CC[C@H](C)[C@H](NC(=O)[C@H](C)NC(=O)[C@H](CCC(=O)O)NC(=O)[C@@H](N)CC(C)C)C(=O)N1CCC[C@H]1C(=O)N[C@H]1CSSC[C@@H](C(=O)N[C@H](C(=O)N[C@@H](C)C(=O)N2Cc3ccccc3C[C@@H]2C(=O)N[C@@H](CC(N)=O)C(=O)N[C@@H](CCCCN)C(=O)N2CCC[C@H]2C(=O)N2Cc3ccccc3C[C@@H]2C(=O)N[C@@H](Cc2ccccc2)C(=O)N[C@H](C(=O)N[C@@H](Cc2ccccc2)C(=O)O)C(C)C)C(C)C)NC(=O)[C@@H]2CCCN2C(=O)[C@@H]2CCCN2C(=O)[C@H]([C@@H](C)CC)NC(=O)[C@H](CO)NC1=O [VIR-166, LEAIPCSIPPCVA(D-Tic)NKP(D-Tic)FVF] (H-LEAIPCSIPPCVA[dTic]NKP[dTic]FVF-OH; disulfide 6-11) | 0.506 | 0.356 | 11 | 7.6 | 0.4 | 12.1 |
| CC[C@H](C)[C@H](NC(=O)[C@H](C)NC(=O)[C@H](CCC(=O)O)NC(=O)[C@@H](N)CC(C)C)C(=O)N1CCC[C@H]1C(=O)N[C@H]1CSSC[C@@H](C(=O)N[C@H](C(=O)N[C@@H](Cc2ccccc2)C(=O)N[C@@H](Cc2ccccc2)C(=O)N[C@@H](CC(N)=O)C(=O)N[C@@H](CCCCN)C(=O)N2CCC[C@H]2C(=O)N[C@@H](Cc2ccccc2)C(=O)N[C@H](C(=O)N[C@@H](Cc2ccccc2)C(=O)O)C(C)C)C(C)C)NC(=O)[C@H]2CCCN2C(=O)[C@@H]2CCCN2C(=O)[C@H]([C@@H](C)CC)NC(=O)[C@H](CO)NC1=O [VIR-352, LEAIPCSIPpCVFFNKPFVF] (H-LEAIPCSIP[dP]CVFFNKPFVF-OH; disulfide 6-11) | 0.624 | 0.34 | 23.7 | 3.6 | 0.2 | 6.4 |

— patent publication US7655629B2, “Peptides and their use for the treatment of HIV infections” (priority 2002, dated 2010)
